Assay results from patent US20260028365A1 (BIOGEN MA INC., priority 2022, published 2026).

Target: Tyk2 (Homo sapiens (Human), UniProt P29597)
Experiment: pSTAT4 Cell Assay (MSD, NK92 cells)
Type: cell-based
Settings: not given
Method: The inhibitory potency of compounds of the disclosure against the Tyk2 kinase activity on STAT4 was evaluated using an MSD-platform plate-based assay format. NK92 cells natively expressing STAT4 and Tyk2 were serum-starved to reduce background phosphorylation levels, then cells were treated compounds for 1 hr with a 10-point four-fold dilution series starting at 10 μM. Cells were then stimulated with 30 ng/mL […] for 15 minutes. […] The data were normalized and the percent activity versus log concentration of compound were fitted with a 4-parameter logistic model to generate to generate IC50 curves.

Chain of Tyk2 (P29597 whole entry): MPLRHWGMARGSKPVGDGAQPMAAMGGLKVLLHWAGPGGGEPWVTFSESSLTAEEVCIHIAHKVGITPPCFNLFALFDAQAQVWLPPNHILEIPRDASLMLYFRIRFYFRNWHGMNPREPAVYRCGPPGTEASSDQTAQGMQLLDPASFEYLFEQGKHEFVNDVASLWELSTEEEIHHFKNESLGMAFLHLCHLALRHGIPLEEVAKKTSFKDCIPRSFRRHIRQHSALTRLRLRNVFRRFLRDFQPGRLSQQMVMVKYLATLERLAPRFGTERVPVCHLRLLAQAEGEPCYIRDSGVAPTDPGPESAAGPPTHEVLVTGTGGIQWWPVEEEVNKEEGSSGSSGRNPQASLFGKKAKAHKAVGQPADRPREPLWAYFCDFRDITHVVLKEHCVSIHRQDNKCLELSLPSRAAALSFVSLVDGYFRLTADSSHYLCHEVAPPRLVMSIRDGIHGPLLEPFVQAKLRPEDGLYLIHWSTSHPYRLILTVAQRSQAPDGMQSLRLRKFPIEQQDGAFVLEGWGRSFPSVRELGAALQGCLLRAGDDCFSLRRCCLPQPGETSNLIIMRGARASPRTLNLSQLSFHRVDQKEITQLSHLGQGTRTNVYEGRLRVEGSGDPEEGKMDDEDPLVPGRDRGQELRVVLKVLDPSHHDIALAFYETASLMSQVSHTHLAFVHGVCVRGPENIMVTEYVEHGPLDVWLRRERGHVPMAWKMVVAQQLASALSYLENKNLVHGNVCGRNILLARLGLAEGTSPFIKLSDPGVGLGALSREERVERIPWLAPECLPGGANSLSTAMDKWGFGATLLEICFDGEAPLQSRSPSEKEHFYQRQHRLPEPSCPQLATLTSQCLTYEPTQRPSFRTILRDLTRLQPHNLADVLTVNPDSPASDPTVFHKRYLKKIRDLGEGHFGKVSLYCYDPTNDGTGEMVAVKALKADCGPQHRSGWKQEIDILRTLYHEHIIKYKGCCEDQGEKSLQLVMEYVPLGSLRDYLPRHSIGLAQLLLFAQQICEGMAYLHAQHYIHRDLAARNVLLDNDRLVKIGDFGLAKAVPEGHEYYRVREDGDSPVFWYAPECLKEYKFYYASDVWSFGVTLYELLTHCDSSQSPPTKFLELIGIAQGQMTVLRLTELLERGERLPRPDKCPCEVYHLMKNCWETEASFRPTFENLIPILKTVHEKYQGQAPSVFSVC

| IC50 [µM] | SMILES |
| --- | --- |
| 0.01 to 0.1 | CCc1cc(Nc2cc(NC(C)=O)ncc2-c2cc(CN3C[C@@H]4C[C@H]3CO4)ncn2)nc(C(C)(F)F)n1 [Example 905, N-(5-(6-(((1S,4S)-2-oxa-5-azabicyclo[2.2.1]heptan-5-yl)methyl)pyrimidin-4-yl)-4-((2-(1,1-difluoroethyl)-6-ethylpyrimidin-4-yl)amino)pyridin-2-yl)acetamide] |
| ≤ 0.01 | CC(=O)Nc1cc(Nc2ccnc(C(C)(F)F)n2)c(-c2csc(CC#N)n2)cn1 [Example 922, N-(5-(2-(cyanomethyl)thiazol-4-yl)-4-((2-(1,1-difluoroethyl)pyrimidin-4-yl)amino)pyridin-2-yl)acetamide] |

The next lines start with the molecule.

| SMILES | IC50 [µM] |
| --- | --- |
| CC(=O)Nc1cc(Nc2ccnc(C(C)(F)F)n2)c(-c2cnc(OC(F)F)cn2)cn1 [Example 854, N-(4-((2-(1,1-difluoroethyl)pyrimidin-4-yl)amino)-5-(5-(difluoromethoxy)pyrazin-2-yl)pyridin-2-yl)acetamide] | 0.01 to 0.1 |
| CCc1cc(Nc2cc(NC(C)=O)ncc2-c2ccc(CN3C[C@@H]4C[C@H]3CO4)cn2)nc(C(C)(F)F)n1 [Example 902, N-(5-(((1S,4S)-2-oxa-5-azabicyclo[2.2.1]heptan-5-yl)methyl)-4′-((2-(1,1-difluoroethyl)-6-ethylpyrimidin-4-yl)amino)-[2,3′-bipyridin]-6′-yl)acetamide] | ≤ 0.01 |
| CCc1cc(Nc2cc(NC(C)=O)ncc2-c2ncc(CN3CCCC3)cc2F)nc(C(C)(F)F)n1 [Example 904, N-(4′-((2-(1,1-difluoroethyl)-6-ethylpyrimidin-4-yl)amino)-3-fluoro-5-(pyrrolidin-1-ylmethyl)-[2,3′-bipyridin]-6′-yl)acetamide] | ≤ 0.01 |
| CCc1cc(Nc2cc(NC(C)=O)ncc2-c2ccc(CN3CCCC3)cn2)nc(C(C)(F)F)n1 [Example 901, N-(4′-((2-(1,1-difluoroethyl)-6-ethylpyrimidin-4-yl)amino)-5-(pyrrolidin-1-ylmethyl)-[2,3′-bipyridin]-6′-yl)acetamide] | ≤ 0.01 |

Same assay, conditions: MSD

| IC50 [µM] | SMILES |
| --- | --- |
| 0.01 to 0.1 | COCCCOc1cnc(NC(C)=O)cc1Nc1cc(C)nc(C(C)(F)F)n1 [Example 107, N-(4-((2-(1,1-difluoroethyl)-6-methylpyrimidin-4-yl)amino)-5-(3-methoxypropoxy)pyridin-2-yl)acetamide] |
| ≥ 1 | CC(=O)Nc1cc(Nc2cc(C)nc(C(C)(F)F)n2)c(-c2cc(N(C)C)cnn2)cn1 [Example 253, N-(4-((2-(1,1-difluoroethyl)-6-methylpyrimidin-4-yl)amino)-5-(5-(dimethylamino)pyridazin-3-yl)pyridin-2-yl)acetamide] |
| ≤ 0.01 | COCCOc1cc(Nc2cc(NC(C)=O)ncc2-c2ccn(C)n2)nc(C(C)(F)F)n1 [Example 207, N-(4-((2-(1,1-difluoroethyl)-6-(2-methoxyethoxy)pyrimidin-4-yl)amino)-5-(1-methyl-1H-pyrazol-3-yl)pyridin-2-yl)acetamide] |
| ≤ 0.01 | COCCOc1cc(Nc2cc(NC(C)=O)ncc2-c2ccn(C)n2)nc(C(C)(F)F)c1 [Example 210, N-(4-((6-(1,1-difluoroethyl)-4-(2-methoxyethoxy)pyridin-2-yl)amino)-5-(1-methyl-1H-pyrazol-3-yl)pyridin-2-yl)acetamide] |
| 0.01 to 0.1 | CC(=O)Nc1cc(Nc2ccnc(C(C)(F)F)n2)c(-c2nc3c(s2)CN(C)C3)cn1 [Example 284, N-(4-((2-(1,1-difluoroethyl)pyrimidin-4-yl)amino)-5-(5-methyl-5,6-dihydro-4H-pyrrolo[3,4-d]thiazol-2-yl)pyridin-2-yl)acetamide] |
| ≤ 0.01 | CC(=O)Nc1cc(Nc2cc(C)nc(C(C)(F)F)n2)c(-c2nc3c(s2)CN(C)C3)cn1 [Example 684, N-(4-((2-(1,1-difluoroethyl)-6-methylpyrimidin-4-yl)amino)-5-(5-methyl-5,6-dihydrO4H-pyrrolo[3,4-d]thiazol-2-yl)pyridin-2-yl)acetamide] |
| 0.01 to 0.1 | COc1cnc(C(C)(F)F)nc1Nc1cc(NC(C)=O)ncc1-c1ccn(C)n1 [Example 590, N-(4-((2-(1,1-difluoroethyl)-5-methoxypyrimidin-4-yl)amino)-5-(1-methyl-1H-pyrazol-3-yl)pyridin-2-yl)acetamide] |

More lines, now with the values behind:

| SMILES | IC50 [µM] |
| --- | --- |
| COc1cc(COc2cnc(NC(C)=O)cc2Nc2cc(C)nc(C(C)(F)F)n2)ccn1 [Example 114, N-(4-((2-(1,1-difluoroethyl)-6-methylpyrimidin-4-yl)amino)-5-((2-methoxypyridin-4-yl)methoxy)pyridin-2-yl)acetamide] | 0.01 to 0.1 |
| CC(=O)Nc1cc(Nc2cc(C)nc(C(C)(F)F)n2)c(OCCOC(C)(C)C)cn1 [Example 113, N-(5-(2-(tert-butoxy)ethoxy)-4-((2-(1,1-difluoroethyl)-6-methylpyrimidin-4-yl)amino)pyridin-2-yl)acetamide] | ≤ 0.01 |
| CC(=O)Nc1cc(Nc2cc(C)nc(C(C)(F)F)n2)c(-c2ccc([C@H]3COCCN3C)cn2)cn1 (single isomer, unassigned) [Example 645, (S)-N-(4′-((2-(1,1-difluoroethyl)-6-methylpyrimidin-4-yl)amino)-5-(4-methylmorpholin-3-yl)-[2,3′-bipyridin]-6′-yl)acetamide or (R)-N-(4′-((2-(1,1-difluoroethyl)-6-methylpyrimidin-4-yl)amino)-5-(4-methylmorpholin-3-yl)-[2,3′-bipyridin]-6′-yl)acetamide] | ≤ 0.01 |
| CC(=O)Nc1cc(Nc2cc(C)nc(C(C)(F)F)n2)c(OCCN2CCN(C)CC2)cn1 [Example 106, N-(4-((2-(1,1-difluoroethyl)-6-methylpyrimidin-4-yl)amino)-5-(2-(4-methylpiperazin-1-yl)ethoxy)pyridin-2-yl)acetamide] | 0.01 to 0.1 |
| COCCc1cncc(-c2cnc(NC(C)=O)cc2Nc2cc(C)nc(C(C)(F)F)n2)n1 [Example 664, N-(4-((2-(1,1-difluoroethyl)-6-methylpyrimidin-4-yl)amino)-5-(6-(2-methoxyethyl)pyrazin-2-yl)pyridin-2-yl)acetamide] | 0.01 to 0.1 |
| CC(=O)Nc1cc(Nc2cc(C(C)C)nc(C(C)(F)F)n2)c(-c2ccn(C)n2)cn1 [Example 205, N-(4-((2-(1,1-difluoroethyl)-6-isopropylpyrimidin-4-yl)amino)-5-(1-methyl-1H-pyrazol-3-yl)pyridin-2-yl)acetamide] | ≥ 1 |
| CC(=O)Nc1cc(Nc2ccnc(C(C)(F)F)n2)c(OC2CCC2)cn1 [Example 7, N-(5-cyclobutoxy-4-((2-(1,1-difluoroethyl)pyrimidin-4-yl)amino)pyridin-2-yl)acetamide] | 0.1 to 1 |
| CC(=O)Nc1cc(Nc2ccnc(C(C)(F)F)n2)c(OC(F)F)cn1 [Example 6, N-(4-((2-(1,1-difluoroethyl)pyrimidin-4-yl)amino)-5-(difluoromethoxy)pyridin-2-yl)acetamide] | ≥ 1 |
| COc1ccc(Oc2cnc(NC(C)=O)cc2Nc2cc(C)nc(C(C)(F)F)n2)nn1 [Example 358, N-(4-((2-(1,1-difluoroethyl)-6-methylpyrimidin-4-yl)amino)-5-((6-methoxypyridazin-3-yl)oxy)pyridin-2-yl)acetamide] | ≥ 1 |
| COc1cnc(C(C)(F)F)nc1Nc1cc(NC(C)=O)ncc1C1CC1 [Example 143, N-(5-cyclopropyl-4-((2-(1,1-difluoroethyl)-5-methoxypyrimidin-4-yl)amino)pyridin-2-yl)acetamide] | ≥ 1 |
